11 compounds from PubChem BioAssay (NCI) can be followed below.

Molecules are shown by their SMILES.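 Results reflect a 48-hour exposure of cells in 96-well plates to compound at five concentrations. The concentration for full growth arrest is given as TGI.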 A value given as a limit tells only on which side of the number the result lay.

Test systems include HCC-2998 colon; NCI-H226 lung; NCI-H460 lung; 786-0 renal; K-562 leukemia; U251 CNS; SW-620 colon; IGROV1 ovarian; SF-268 CNS; SK-MEL-28 melanoma; MCF7 breast; OVCAR-8 ovarian; MALME-3M melanoma; SN12C renal.
Experiment in all cases: inhibition of tumour cell growth, NCI panel, 48 h

On to `CN1C(=O)C(C#N)C2C[C@@]1(C)Oc1ccccc12` (some centres not stated), for which the TGI in the test with HCC-2998 colon, with NCI-H226 lung, in the test on NCI-H460 lung, in the test with 786-0 renal, with K-562 leukemia and with U251 CNS was greater than 100 µM each time. Also, the TGI in the test with SW-620 colon, with IGROV1 ovarian, in the test with SF-268 CNS, in the test on SK-MEL-28 melanoma, with MCF7 breast and in the test with OVCAR-8 ovarian was greater than 100 µM in each case.

With `Cn1nc(S(N)(=O)=O)s/c1=N/S(=O)(=O)c1ccc(N)cc1`, the TGI in the test on HCC-2998 colon, with NCI-H226 lung, in the test with NCI-H460 lung, with 786-0 renal, with U251 CNS and in the test on SW-620 colon was greater than 100 µM in each case. Further, the TGI with MALME-3M melanoma, in the test with SF-268 CNS, with SK-MEL-28 melanoma and in the test on OVCAR-8 ovarian was greater than 100 µM in each case.

As to `Brc1ccc(N=Nc2ccc3ccccc3n2)cc1`, the TGI is 66.9 µM in the test with NCI-H226 lung; 26.4 µM with NCI-H460 lung; 27.1 µM in the test with 786-0 renal; 36.2 µM in the test on U251 CNS; greater than 100 µM with SW-620 colon; 65.5 µM in the test on IGROV1 ovarian. The TGI in the test on MALME-3M melanoma was greater than 100 µM; in the test on SF-268 CNS, 94 µM; in the test with SN12C renal, greater than 100 µM; in the test with MCF7 breast it was greater than 100 µM; in the test on OVCAR-8 ovarian, greater than 100 µM.

In the case of `CCN(CC)c1ccc2cc(-c3csc(C)n3)c(=O)oc2c1`, the TGI in the test with HCC-2998 colon, in the test with NCI-H226 lung, with NCI-H460 lung, in the test with 786-0 renal, with K-562 leukemia and with U251 CNS was greater than 100 µM throughout. The TGI in the test on SW-620 colon, with IGROV1 ovarian, in the test on SF-268 CNS, in the test on SK-MEL-28 melanoma, in the test with SN12C renal and in the test with MCF7 breast was greater than 100 µM throughout.

In the case of `CC(C)N(C(=O)C12C3(C(=O)C(C)(C)C)C4C5(C#N)C3C1(C(=O)C(C)(C)C)C5C42C(=O)C(C)(C)C)C(C)C` (configuration not stated), the TGI in the test on HCC-2998 colon, in the test with NCI-H460 lung, in the test with 786-0 renal, with K-562 leukemia, with U251 CNS and in the test on SW-620 colon was greater than 100 µM each time. Also, the TGI in the test on IGROV1 ovarian, in the test with SF-268 CNS, in the test with SK-MEL-28 melanoma, in the test on SN12C renal, with MCF7 breast and in the test with OVCAR-8 ovarian was greater than 100 µM in each case.

`C/C(CC(=O)Nc1ccccc1)=N\NC(N)=S`: the TGI in the test on HCC-2998 colon, in the test on NCI-H226 lung, with NCI-H460 lung, in the test with 786-0 renal, with K-562 leukemia and in the test on U251 CNS was greater than 100 µM each time. Moreover, the TGI in the test on SW-620 colon, in the test on IGROV1 ovarian, in the test on MALME-3M melanoma, with SF-268 CNS, in the test with SK-MEL-28 melanoma and with OVCAR-8 ovarian was greater than 100 µM throughout.

For `O=C1/C(=C/c2ccc(OC(=O)c3ccc(Cl)cc3)cc2)CCC/C1=C\c1ccc(OC(=O)c2ccc(Cl)cc2)cc1`, the TGI in the test with HCC-2998 colon, with NCI-H460 lung, with 786-0 renal, in the test on U251 CNS, with SW-620 colon and in the test on IGROV1 ovarian was greater than 100 µM in each case. Besides, the TGI with SF-268 CNS, in the test on SK-MEL-28 melanoma, in the test on SN12C renal, with MCF7 breast and with OVCAR-8 ovarian was greater than 100 µM each time.

For the compound `O=C(NN1C(=O)C(Cl)C1c1cccc(Cl)c1)c1ccccc1O` (configuration not stated), the TGI in the test with NCI-H226 lung, in the test on NCI-H460 lung, in the test with 786-0 renal, with K-562 leukemia, with U251 CNS and in the test on IGROV1 ovarian was greater than 100 µM in each case. Besides, the TGI with MALME-3M melanoma, with SF-268 CNS, with SK-MEL-28 melanoma, in the test with SN12C renal and with OVCAR-8 ovarian was greater than 100 µM each time.

As to `Cc1ccc(S(=O)(=O)NC(=O)NCC(N)=O)cc1`, the TGI in the test on NCI-H460 lung, with 786-0 renal, in the test on K-562 leukemia, in the test with U251 CNS, in the test with SW-620 colon and in the test with IGROV1 ovarian was greater than 100 µM throughout. Besides, the TGI with MALME-3M melanoma, with SF-268 CNS, with SK-MEL-28 melanoma, with SN12C renal, with MCF7 breast and in the test with OVCAR-8 ovarian was greater than 100 µM each time.

Consider `O=[N+]([O-])c1cc(Cl)ccc1S(=O)(=O)c1ccc(Cl)cc1[N+](=O)[O-]`, for which the TGI was 25.1 µM with NCI-H226 lung; 31.5 µM in the test with NCI-H460 lung; 28.9 µM in the test with 786-0 renal; greater than 100 µM in the test with K-562 leukemia; 34.5 µM in the test with U251 CNS; 32.6 µM in the test with SW-620 colon. Moreover, the TGI amounted to 29.4 µM in the test on IGROV1 ovarian; 26.6 µM in the test on MALME-3M melanoma; 29.2 µM in the test with SF-268 CNS; 32 µM in the test on SK-MEL-28 melanoma; 29.1 µM with SN12C renal; 29.5 µM in the test with OVCAR-8 ovarian.

For `O=c1[nH]cc(COCC(O)CO)c(=O)[nH]1` (configuration not stated), the TGI in the test with NCI-H226 lung, in the test with NCI-H460 lung, in the test with 786-0 renal, in the test with K-562 leukemia, in the test on U251 CNS and with SW-620 colon was greater than 100 µM in each case. In addition, the TGI in the test with IGROV1 ovarian, in the test with MALME-3M melanoma, in the test on SF-268 CNS, with SK-MEL-28 melanoma, in the test on SN12C renal and with OVCAR-8 ovarian was greater than 100 µM in each case.
